Assay results taken from US20230085307A1, “PYRIDAZINONE COMPOUND AND HERBICIDE” (NISSAN CHEMICAL CORPORATION, priority 2019, published 2023).

Tests used:
southern crabgrass [1] = assay: Test Example 5: herbicidal effect by foliage application, plastic box (Table 20, symbol F); assay type: in vivo, southern crabgrass (Digitaria ciliaris); details: foliage application, 320 g/ha, three weeks after application
Outline: (§1)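 Plants sown in sterilized diluvial soil and grown 14 days in a greenhouse at 25° C to 30° C, then sprayed on the foliage with the compound's emulsion diluted in water to a predetermined herbicide amount. Injury to weeds and crops scored three weeks after application on a visual rating scale.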

velvetleaf [2] = assay: Test Example 5: herbicidal effect by foliage application, plastic box (Table 20, symbol M); assay type: in vivo, velvetleaf (Abutilon theophrasti); details: foliage application, 320 g/ha, three weeks after application
Outline: as §1

redroot pigweed [3] = assay: Test Example 4: herbicidal effect by soil treatment (Table 19, symbol N); assay type: in vivo, redroot pigweed (Amaranthus retroflexus); details: amount of applied herbicide 320 g/ha
Outline: (§2)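 Seeds were sown in sterilized diluvial soil and covered with about 1.5 cm of soil. An emulsion formulation diluted with water to a predetermined herbicide amount was sprayed evenly onto the soil surface. Plants grew in a greenhouse at 25° C. to 30° C., and the effect was scored three weeks after application using criteria from an earlier test.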

redroot pigweed [4] = assay: Test Example 5: herbicidal effect by foliage application, plastic box (Table 20, symbol N); assay type: in vivo, redroot pigweed (Amaranthus retroflexus); details: foliage application, 320 g/ha, three weeks after application
Outline: as §1

late watergrass [5] = assay: Test Example 1: herbicidal activity, application before weed generation under submerged conditions (Table 16, symbol A); assay type: in vivo, late watergrass (Echinochloa oryzicola); details: amount of applied herbicide 320 g/ha
Outline: (§3)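 Emulsion formulation, water-diluted to set dose, was put onto the flooded surface (4 cm depth, alluvial soil) the same day weeds were sown and 2.5-leaf rice transplanted. After 3 weeks at 25-30 °C under glass, each species was rated 0 (≤5% kill) to 5 (≥90% kill).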

southern crabgrass [6] = assay: Test Example 4: herbicidal effect by soil treatment (Table 19, symbol F); assay type: in vivo, southern crabgrass (Digitaria ciliaris); details: amount of applied herbicide 320 g/ha
Outline: as §2

barnyard grass [7] = assay: Test Example 4: herbicidal effect by soil treatment (Table 19, symbol H); assay type: in vivo, barnyard grass (Echinochloa crus-galli); details: amount of applied herbicide 320 g/ha
Outline: as §2

late watergrass [8] = assay: Test Example 2: herbicidal activity, application during weed generation under submerged conditions (Table 17, symbol A); assay type: in vivo, late watergrass (Echinochloa oryzicola); details: AAH 320 g/ha; application during weed generation, submerged conditions
Outline: (§4)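 Alluvial soil in Wagner pots was flooded to 4 cm depth and sown with the three weeds together; pots were kept in a greenhouse at 25° C. to 30° C. At the one to two leaf stage, an emulsion formulation diluted in water to a set rate went onto the water surface; scored three weeks later.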

lambsquarters [9] = assay: Test Example 5: herbicidal effect by foliage application, plastic box (Table 20, symbol O); assay type: in vivo, lambsquarters (Chenopodium album); details: foliage application, 320 g/ha, three weeks after application
Outline: as §1

lambsquarters [10] = assay: Test Example 4: herbicidal effect by soil treatment (Table 19, symbol O); assay type: in vivo, lambsquarters (Chenopodium album); details: amount of applied herbicide 320 g/ha
Outline: as §2

green foxtail [11] = assay: Test Example 4: herbicidal effect by soil treatment (Table 19, symbol G); assay type: in vivo, green foxtail (Setaria viridis); details: amount of applied herbicide 320 g/ha
Outline: as §2

Japanese bulrush [12] = assay: Test Example 1: herbicidal activity, application before weed generation under submerged conditions (Table 16, symbol B); assay type: in vivo, Japanese bulrush (Schoenoplectus juncoides); details: amount of applied herbicide 320 g/ha
Outline: as §3

barnyard grass [13] = assay: Test Example 5: herbicidal effect by foliage application, plastic box (Table 20, symbol H); assay type: in vivo, barnyard grass (Echinochloa crus-galli); details: foliage application, 320 g/ha, three weeks after application
Outline: as §1

Chinese sprangletop = assay: Test Example 3: herbicidal effect by foliage application, Wagner pot (Table 18, symbol D); assay type: in vivo, chinese sprangletop (Leptochloa chinensis); details: amount of applied herbicide 320 g/ha
Outline: (§5)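 Plants were sown in alluvial soil held under 0.1–0.5 cm standing water and grown 14 days in a greenhouse at 25–30 °C. An emulsifiable formulation, water-diluted to the set dose, was then sprayed onto the foliage, and effects were scored three weeks later using previously defined criteria.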

barnyard grass [14] = assay: Test Example 3: herbicidal effect by foliage application, Wagner pot (Table 18, symbol H); assay type: in vivo, barnyard grass (Echinochloa crus-galli); details: amount of applied herbicide 320 g/ha
Outline: as §5

Japanese bulrush [15] = assay: Test Example 2: herbicidal activity, application during weed generation under submerged conditions (Table 17, symbol B); assay type: in vivo, Japanese bulrush (Schoenoplectus juncoides); details: AAH 320 g/ha; application during weed generation, submerged conditions
Outline: as §4

green foxtail [16] = assay: Test Example 5: herbicidal effect by foliage application, plastic box (Table 20, symbol G); assay type: in vivo, green foxtail (Setaria viridis); details: foliage application, 320 g/ha, three weeks after application
Outline: as §1

oval-leafed pondweed [17] = assay: Test Example 2: herbicidal activity, application during weed generation under submerged conditions (Table 17, symbol C); assay type: in vivo, oval-leafed pondweed (Monochoria vaginalis); details: AAH 320 g/ha; application during weed generation, submerged conditions
Outline: as §4

oval-leafed pondweed [18] = assay: Test Example 1: herbicidal activity, application before weed generation under submerged conditions (Table 16, symbol C); assay type: in vivo, oval-leafed pondweed (Monochoria vaginalis); details: amount of applied herbicide 320 g/ha
Outline: as §3

velvetleaf [19] = assay: Test Example 4: herbicidal effect by soil treatment (Table 19, symbol M); assay type: in vivo, velvetleaf (Abutilon theophrasti); details: amount of applied herbicide 320 g/ha
Outline: as §2

For `COCCOc1ccc(-c2sc3ccc(F)cc3c2-c2c(O)cnn(C)c2=O)cc1` [2-441], the “F: southern crabgrass, herbicidal effect grade” value (southern crabgrass [1]) was 4 (Herbicidal rate of 70% or more and less than 90%), the “M: velvetleaf, herbicidal effect grade” value (velvetleaf [2]) was 5 (Herbicidal rate of 90% or more (almost completely withered)) and the “herbicidal effect, N: redroot pigweed” value (redroot pigweed [3]) was 4 (Herbicidal rate of 70% or more and less than 90%). The “N: redroot pigweed, herbicidal effect grade” value (redroot pigweed [4]) was 5 (Herbicidal rate of 90% or more (almost completely withered)), the “Herbicidal effect, A: late watergrass” value (late watergrass [5]) was 3 (Herbicidal rate of 40% or more and less than 70%) and the “herbicidal effect, F: southern crabgrass” value (southern crabgrass [6]) was 0 (Herbicidal rate of 5% or less (almost no effect)). For the same compound, the “herbicidal effect, H: barnyard grass” value (barnyard grass [7]) was 0 (Herbicidal rate of 5% or less (almost no effect)), the “herbicidal effect rating, A: late watergrass” value (late watergrass [8]) was 3 (Herbicidal rate of 40% or more and less than 70%) and the “O: lambsquarters, herbicidal effect grade” value (lambsquarters [9]) was 5 (Herbicidal rate of 90% or more (almost completely withered)). The “herbicidal effect, O: lambsquarters” value (lambsquarters [10]) was 4 (Herbicidal rate of 70% or more and less than 90%), the “herbicidal effect, G: green foxtail” value (green foxtail [11]) was 0 (Herbicidal rate of 5% or less (almost no effect)) and the “Herbicidal effect, B: Japanese bulrush” value (Japanese bulrush [12]) was 3 (Herbicidal rate of 40% or more and less than 70%). For the same compound, the “H: barnyard grass, herbicidal effect grade” value (barnyard grass [13]) was 5 (Herbicidal rate of 90% or more (almost completely withered)), the “herbicidal effect on D: Chinese sprangletop” value (Chinese sprangletop) was 0 (Herbicidal rate of 5% or less (almost no effect)) and the “herbicidal effect on H: barnyard grass” value (barnyard grass [14]) was 5 (Herbicidal rate of 90% or more (almost completely withered)). For the same compound, the “herbicidal effect rating, B: Japanese bulrush” value (Japanese bulrush [15]) was 0 (Herbicidal rate of 5% or less (almost no effect)), the “G: green foxtail, herbicidal effect grade” value (green foxtail [16]) was 5 (Herbicidal rate of 90% or more (almost completely withered)) and the “herbicidal effect rating, C: oval-leafed pondweed” value (oval-leafed pondweed [17]) was 0 (Herbicidal rate of 5% or less (almost no effect)). The “Herbicidal effect, C: oval-leafed pondweed” value (oval-leafed pondweed [18]) was 3 (Herbicidal rate of 40% or more and less than 70%) and the “herbicidal effect, M: velvetleaf” value (velvetleaf [19]) was 1 (Herbicidal rate of 5% or more and less than 20%).

`COCCOCc1ccc(-c2sc3ccc(F)cc3c2-c2c(O)c(C)nn(C)c2=O)cc1` [2-445] was tested, and the “F: southern crabgrass, herbicidal effect grade” value (southern crabgrass [1]) was 5 (Herbicidal rate of 90% or more (almost completely withered)), the “M: velvetleaf, herbicidal effect grade” value (velvetleaf [2]) was 5 (Herbicidal rate of 90% or more (almost completely withered)) and the “herbicidal effect, N: redroot pigweed” value (redroot pigweed [3]) was 5 (Herbicidal rate of 90% or more (almost completely withered)). The “N: redroot pigweed, herbicidal effect grade” value (redroot pigweed [4]) was 5 (Herbicidal rate of 90% or more (almost completely withered)), the “Herbicidal effect, A: late watergrass” value (late watergrass [5]) was 3 (Herbicidal rate of 40% or more and less than 70%) and the “herbicidal effect, F: southern crabgrass” value (southern crabgrass [6]) was 5 (Herbicidal rate of 90% or more (almost completely withered)). For the same compound, the “herbicidal effect, H: barnyard grass” value (barnyard grass [7]) was 4 (Herbicidal rate of 70% or more and less than 90%), the “herbicidal effect rating, A: late watergrass” value (late watergrass [8]) was 3 (Herbicidal rate of 40% or more and less than 70%) and the “O: lambsquarters, herbicidal effect grade” value (lambsquarters [9]) was 5 (Herbicidal rate of 90% or more (almost completely withered)). For the same compound, the “herbicidal effect, O: lambsquarters” value (lambsquarters [10]) was 4 (Herbicidal rate of 70% or more and less than 90%), the “herbicidal effect, G: green foxtail” value (green foxtail [11]) was 5 (Herbicidal rate of 90% or more (almost completely withered)) and the “Herbicidal effect, B: Japanese bulrush” value (Japanese bulrush [12]) was 0 (Herbicidal rate of 5% or less (almost no effect)). The “H: barnyard grass, herbicidal effect grade” value (barnyard grass [13]) was 5 (Herbicidal rate of 90% or more (almost completely withered)), the “herbicidal effect rating, B: Japanese bulrush” value (Japanese bulrush [15]) was 0 (Herbicidal rate of 5% or less (almost no effect)) and the “G: green foxtail, herbicidal effect grade” value (green foxtail [16]) was 5 (Herbicidal rate of 90% or more (almost completely withered)). The “herbicidal effect rating, C: oval-leafed pondweed” value (oval-leafed pondweed [17]) was 0 (Herbicidal rate of 5% or less (almost no effect)), the “Herbicidal effect, C: oval-leafed pondweed” value (oval-leafed pondweed [18]) was 0 (Herbicidal rate of 5% or less (almost no effect)) and the “herbicidal effect, M: velvetleaf” value (velvetleaf [19]) was 3 (Herbicidal rate of 40% or more and less than 70%).
